Data reported in US12129490B2, “Methods for generating hepatocytes and cholangiocytes from pluripotent stem cells” (UNIVERSITY HEALTH NETWORK, priority 2018, dated 2024).

What was measured:
[1] = test system: H9- and iPSC (38-2)-derived hepatic aggregates
Experimental: HPSCs were maintained on irradiated mouse embryonic feeder cells in hESC media consisting of DEME/F12 (50:50; Gibco) supplemented with 20% Knock-out serum replacement (KSR) as described previously^44. Prior to the generation of embryoid bodies (EBs), hESCs were passaged onto Matrigel™-coated plates for 1 day to deplete the population of feeder cells. […] At day 1, the EBs were harvested and re-cultured in induction medium A that consisted of StemPRO-34® supplemented with glutamine (2 mM), ascorbic acid ([…]; Sigma), MTG ([…]; Sigma), basic fibroblast growth factor (bFGF; 2.5 ng/ml), activin A (100 ng/ml), Wnt3a (25 ng/ml) and BMP4 (0.25 ng/ml) for 3 days. On day 4, the EBs were harvested and re-cultured in StemPRO-34® supplemented with bFGF (10 ng/ml), activin A (100 ng/ml), Wnt3a (25 ng/ml) and BMP4 (0.25 ng/ml) (medium B). EBs were harvested at day 6, dissociated to single cells and the cells cultured for 2 days on Matrigel™-coated 12 well plates at a concentration of 4×10^5 cells in media B without Wnt3A and with activin A at a concentration of 50 ng/ml. At day 8, medium B was replaced with hepatic specification media that consisted of Iscove's Modified Dulbecco's Medium (IMDM) supplement with 1% vol/vol B27 supplement (Invitrogen: A11576SA), ascorbic acid, MTG, FGF10 (50 ng/ml) (from day 8 to day 10), bFGF (20 ng/ml) (from day 10 to day 14), and BMP4 (50 ng/ml). Media was changed every 2 days from day 8 to day 14. To promote maturation of HES2-derived hepatic cells, they were cultured in maturation media A for 12 days. Maturation media A consisted of IMDM with 1% vol/vol B27 supplement, ascorbic acid, Glutamine, MTG, Hepatocyte growth factor (HGF) (20 ng/ml), Dexamethasone Dex) (40 ng/ml) and Oncostatin M (20 ng/ml). Aggregates were generated from the population at day 26 of culture. To generate aggregates the cells were dissociated with collagenase and TrypleLE and then cultured in six well ultra-low cluster dishes at a concentration of 6×10^5 cells per well in maturation medium A supplemented with Rho-kinase inhibitor and 0.1% BSA. Aggregates were maintained under these conditions until day 32, with media changes every 3 days. […] Media was changed every 3 days. To generate hepatocyte like cells from H9, H1 and IPS cells, the following changes were made to the hepatic specification media. […] All cytokines were human and purchased from R&D Systems, unless stated otherwise. EB and monolayer cultures were maintained in a 5% CO2, 5% O2, 90% N2 environment. Aggregation cultures were maintained in a 5% CO2 ambient air environment.
Total RNA was prepared with RNAqueous® Micro Kit (Ambion) and treated with RNase-free DNase (Ambion). 500 ng to 1 μg RNA was reverse transcribed into cDNA using random hexamers and Oligo(dT) with Superscript® III Reverse Transcriptase (Invitrogen). qPCR was performed on a MasterCycler® ep realplex (Eppendorf) using A QuentiFast SYBR Green PCR Kit (Quiagen) as described previously^45. Expression levels were normalized to the housekeeping gene TATA box binding protein (TBP). […] Total human adult and fetal liver RNA was purchased from Clontech. Two primary hepatocyte RNA samples were provided by Dr Stephen C. […] Two primary hepatocyte samples were cultured for two day and were harvested.

hepatic aggregates = assay: Indocyanine green (ICG) uptake of hepatic aggregates; format: cell-based, human; settings: day 44 aggregates
Experimental: The indocyanine green (ICG, Sigma) solution was added to the cells at final concentration of 1 mg/ml ICG in HCM (Lonza). The cells were incubated at 37° C. for 1 hour, washed 3 times with PBS, and then examined with an inverted Microscope (Leica).

hESC-derived cells = assay: Albumin secretion, ELISA; format: cell-based, human
Experimental: The levels of albumin (ALB) secreted by hESC-derived monolayer and aggregate populations, as well as by HepG2 cells, Huh7 cells and cryopreserved hepatocytes (PH, lot OSI) was detected using an ELISA assay. […] Only low levels were detected in HepG2, Huh7 and PH cells. By contrast, the capacity to take up indocyanine green (ICG), a characteristic of adult hepatocytes (Stieger et al., 2012) was enhanced by cAMP signaling. ICG uptake and release by cAMP-treated and non-treated was measured in day 44 aggregates.

CYP2B6 = biological target: T1, CYP2B6 (Homo sapiens, UniProt P20813); assay: CYP2B6 activity, hydroxylation of bupropion by HPLC; format: in vitro ADME; settings: 8-Br-cAMP-treated cells versus primary hepatocytes
T1 sequence (P20813 1-491): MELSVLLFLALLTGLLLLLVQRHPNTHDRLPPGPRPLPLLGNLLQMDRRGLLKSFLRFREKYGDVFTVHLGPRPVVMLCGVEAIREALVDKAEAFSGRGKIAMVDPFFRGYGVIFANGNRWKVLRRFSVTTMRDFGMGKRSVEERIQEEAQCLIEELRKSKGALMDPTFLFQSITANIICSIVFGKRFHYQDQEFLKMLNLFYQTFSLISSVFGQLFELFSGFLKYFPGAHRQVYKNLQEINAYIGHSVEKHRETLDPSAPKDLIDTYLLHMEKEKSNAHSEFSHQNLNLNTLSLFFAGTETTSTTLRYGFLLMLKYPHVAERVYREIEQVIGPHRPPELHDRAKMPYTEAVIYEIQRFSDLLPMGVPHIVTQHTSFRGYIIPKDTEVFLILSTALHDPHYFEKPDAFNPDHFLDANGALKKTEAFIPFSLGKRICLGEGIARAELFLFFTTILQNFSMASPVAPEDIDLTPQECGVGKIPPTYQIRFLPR
Experimental: Formation of the metabolite O-hydroxy-bupropion from bupropion was measured by HPLC. Activity is presented per 50,000 cells, (n=3).

Nc1ncnc2c1nc(Br)n2[C@@H]1O[C@@H]2COP(=O)(O)O[C@H]2[C@H]1O [8-Br-cAMP, 8-bromoadenosine-3′5″-cyclic monophosphate]
expression of CYP1A2 [1]: 100 fold | expression of CYP2B6 [1]: 10 fold | expression of CYP3A4 [1]: 16 fold | expression of CYP3A4, CYP1A2, CYP2B6 and UGT1A1 [1]: as high as those in primary hepatocytes | expression of UGT1A1 ([1]; H9-derived aggregates): 16 fold | ICG staining of aggregates (hepatic aggregates): almost all treated aggregates stained with ICG | albumin secretion (hESC-derived cells): not impacted | CYP2B6 activity, hydroxylation of bupropion (CYP2B6): comparable to those found in primary hepatocytes
